Laboratory results taken from article PMC6986443, “T‐495, a novel low cooperative M1 receptor positive allosteric modulator, improves memory deficits associated with cholinergic dysfunction and is characterized by low gastrointestinal side effect risk” (Pharmacology Research & Perspectives, 2020).
Like-named read-outs stand apart in the source and are kept apart here.

Tests used:
[1] = Concentrations in rat plasma and brain (IP1 study); assay type: in vivo; settings: Long-Evans, po, mean ± SD; for Kp at 2 h: brain/plasma, read-out: Kp (brain‐to‐plasma concentration ratio)
Procedure: (§1) Eight‐week‐old Long‐Evans rats, 8‐ to 9‐week‐old C57BL/6J mice, and 22‐ or 29‐week‐old M1R KO mice and their WT littermates were used in this study. On the day of the experiment, animals were placed in individual cages and acclimated for more than 1 hour. A test compound or vehicle was administered 2 hours before the animals were sacrificed. […] LiCl (10 mmol/kg, s.c.) was injected 1 hour before sacrifice. In the repeated administration study, a test compound was administered to mice once daily for 13 days; on day 14, animals were treated with a test compound and LiCl (10 mmol/kg, s.c.) and then sacrificed. Animals were killed by decapitation, and blood was collected into tubes containing ethylenediaminetetraacetic acid for pharmacokinetic analysis; brains were quickly dissected, frozen on dry ice, and stored at −80°C until analysis. Brain tissues were homogenized in 19 (for rat tissues) or 39 (for mouse tissue) volumes of homogenization buffer (10 mmol/L HEPES pH 7.4, 50 mmol/L LiCl, 150 mmol/L NaCl, and 1% Triton X‐100), and the homogenate was incubated on a rotator for 1 hour, followed by centrifugation. The supernatant was diluted with 39 (for rat tissues) or 19 (for mouse tissues) volumes of dilution buffer (10 mmol/L HEPES pH 7.4, 50 mmol/L LiCl, and 150 mmol/L NaCl). IP1 and protein concentrations in the diluted supernatant were measured using IP‐One HTRF assay kit (Cisbio Bioassays) and BCA Protein Assay Kit (Thermo Fisher Scientific Inc), respectively, according to the manufacturers’ instructions. IP1 production was expressed as the ratio of IP1 to protein concentrations.

[2] = Concentrations in mouse plasma and brain after single and repeated treatment; assay type: in vivo; settings: C57BL/6J, oral, mean ± SD
Procedure: as §1

[3] = tested on: ileum segment of ICR mice; assay: Spontaneous ileum contraction; design: species or system mouse; settings: 0.01, 0.1, and 1 μmol/L applied cumulatively
Procedure: ICR mice were fasted overnight and sacrificed by decapitation, and the ileum was removed and the luminal contents were gently flushed out with ice‐cold modified Krebs buffer (NaCl, 120.7 mmol/L; KCl, 5.9 mmol/L; NaHCO3, 15.5 mmol/L; MgCl2, 1.2 mmol/L; NaH2PO4, 1.2 mmol/L; CaCl2, 2.5 mmol/L; glucose, 11.5 mmol/L). The ileum segment (approximately 5 mm in length) was suspended in a 10‐mL organ bath filled with oxygenated (95% O2 and 5% CO2) modified Krebs buffer at 37°C. One end of the ileum segment was tied to a hook and the other end was secured with a silk thread to an isometric force transducer (MLT050/A, ADInstruments) connected to a data acquisition system (PowerLab 8/30 ML870 and Octal Bridge Amp ML228, ADInstruments). The ileum segment was subjected to an initial tension of 0.3 to 0.4 g and was allowed to equilibrate for at least 30 minutes. After the equilibration period, spontaneous contractions were measured for 3 minutes (pretreatment) and then increasing concentrations of a test compound (0.01, 0.1, and 1 μmol/L) were cumulatively applied at 3‐minute intervals. LabChart software (ADInstruments) was used to analyze the spontaneous contractions. The mean amplitude of spontaneous contractions at each concentration was normalized to that observed at pretreatment.

[4] = tested on: SD rats; settings: rats; for Convulsion / Fasciculation / Lacrimation / Loose or mucous stool or diarrhea / Miosis / Salivation / Loose, mucous stool, or diarrhea / Myosis: rats with effect/total
Procedure: Seven‐ or 8‐week‐old SD rats were individually placed into observation cages. After an acclimation period of at least 1 hour, a test compound was administered to the rats. […] Cholinergic side effects, including diarrhea, lacrimation, salivation, miosis, and fasciculation, were assessed blindly, as described previously,27 and convulsion was scored using a modified Racine scale,37 as follows: stage 0, normal; stage 1, immobility; stage 2, forelimb and/or tail extension and rigid posture; stage 3, repetitive movements, head nodding, and gnawing; stage 4, rearing and falling; stage 5, continuous rearing and falling; stage 6, severe tonic‐clonic seizure with loss of postural control; and stage 7, death in the first 2 hours.

[5] = 1 mg/kg p.o., observed 15 min to 8 h
[6] = 3 mg/kg p.o., observed 15 min to 8 h
[7] = 10 mg/kg p.o., observed 15 min to 8 h
[8] = 30 mg/kg p.o., observed 15 min to 8 h
[9] = 100 mg/kg p.o., observed 15 min to 8 h
[10] = T-495 0.3 mg/kg p.o. alone, combination study
[11] = donepezil 0.1 mg/kg + T-495 0.3 mg/kg p.o.

Cc1c(Cc2ccc(Cl)nc2)cc2c(c1Cl)OCN([C@H]1CCC[C@@H]1O)C2=O [T‐495, 8‐chloro‐6‐((6‐chloropyridin‐3‐yl)methyl)‐3‐((1S,2S)‐2‐hydroxycyclopentyl)‐7‐methyl‐2,3‐dihydro‐4H‐1,3‐benzoxazin‐4‐one]
concentration at 2 h ([1]; brain (hippocampus), rat hippocampus, 3 mg/kg p.o., read-out: Brain concentration): 66.2 ± 18.5 ng/g
concentration at 2 h ([1]; brain (hippocampus), rat hippocampus, 10 mg/kg p.o., read-out: Brain concentration): 304 ± 82.8 ng/g
concentration at 2 h ([1]; brain (hippocampus), rat hippocampus, 30 mg/kg p.o., read-out: Brain concentration): 1000 ± 330 ng/g
Kp at 2 h ([1]; rat, 3 mg/kg p.o.): 1.4 ± 0.1
Kp at 2 h ([1]; rat, 10 mg/kg p.o.): 1 ± 0.1
Kp at 2 h ([1]; rat, 30 mg/kg p.o.): 1 ± 0.1
concentration at 2 h ([1]; plasma, rat, 3 mg/kg p.o., n = 6, read-out: Plasma concentration): 49.6 ± 14.5 ng/mL
concentration at 2 h ([1]; plasma, rat, 10 mg/kg p.o., n = 6, read-out: Plasma concentration): 298 ± 75.2 ng/mL
concentration at 2 h ([1]; plasma, rat, 30 mg/kg p.o., n = 6, read-out: Plasma concentration): 1050 ± 358 ng/mL
concentration at 2 h ([2]; brain (hippocampus), 10 mg/kg, mouse hippocampus, pretreated with the compound 10 mg/kg p.o. for 13 days, 10 mg/kg p.o., read-out: Brain concentration): 879 ± 159 ng/g
concentration at 2 h ([2]; brain (hippocampus), 10 mg/kg, mouse hippocampus, vehicle-pretreated, 10 mg/kg p.o., read-out: Brain concentration): 956 ± 122 ng/g
concentration at 2 h ([2]; brain (hippocampus), 30 mg/kg, mouse hippocampus, pretreated with the compound 10 mg/kg p.o. for 13 days, 30 mg/kg p.o., read-out: Brain concentration): 4090 ± 599 ng/g
concentration at 2 h ([2]; brain (hippocampus), 30 mg/kg, mouse hippocampus, vehicle-pretreated, 30 mg/kg p.o., read-out: Brain concentration): 3650 ± 744 ng/g
concentration at 2 h ([2]; plasma, 10 mg/kg, pretreated with the compound 10 mg/kg p.o. for 13 days, 10 mg/kg p.o., read-out: Plasma concentration): 1300 ± 338 ng/mL
concentration at 2 h ([2]; plasma, 10 mg/kg, vehicle-pretreated, 10 mg/kg p.o., n = 10, read-out: Plasma concentration): 1150 ± 215 ng/mL
concentration at 2 h ([2]; plasma, 30 mg/kg, pretreated with the compound 10 mg/kg p.o. for 13 days, 30 mg/kg p.o., read-out: Plasma concentration): 5420 ng/mL
concentration at 2 h ([2]; plasma, 30 mg/kg, vehicle-pretreated, 30 mg/kg p.o., n = 10, read-out: Plasma concentration): 4890 ± 923 ng/mL
concentration at which spontaneous ileum contraction was increased [3]: 1 µmol/L
dose difference between memory improvement and induction of cholinergic side effects, including diarrhea [4]: 100 fold
Convulsion [4, 5]: 0/6
Fasciculation [4, 5]: 0/6
Lacrimation [4, 5]: 0/6
Loose or mucous stool or diarrhea [4, 5]: 0/6
Miosis [4, 5]: 0/6
Salivation [4, 5]: 0/6
Convulsion [4, 6]: 0/6
Fasciculation [4, 6]: 0/6
Lacrimation [4, 6]: 0/6
Loose or mucous stool or diarrhea [4, 6]: 0/6
Miosis [4, 6]: 0/6
Salivation [4, 6]: 0/6
Convulsion [4, 7]: 0/6
Fasciculation [4, 7]: 0/6
Lacrimation [4, 7]: 0/6
Loose or mucous stool or diarrhea [4, 7]: 0/6
Miosis [4, 7]: 0/6
Salivation [4, 7]: 0/6
Convulsion [4, 8]: 0/6
Fasciculation [4, 8]: 0/6
Lacrimation [4, 8]: 0/6
Loose or mucous stool or diarrhea [4, 8]: 0/6
Miosis [4, 8]: 0/6
Salivation [4, 8]: 0/6
Convulsion [4, 9]: 1/6
Fasciculation [4, 9]: 0/6
Lacrimation [4, 9]: 0/6
Loose or mucous stool or diarrhea [4, 9]: 5/6
Miosis [4, 9]: 0/6
Salivation [4, 9]: 1/6
diarrhea score ([4]; 100 mg/kg p.o., vs vehicle): significantly increased
Convulsion [4, 10]: 0/6
Fasciculation [4, 10]: 0/6
Lacrimation [4, 10]: 0/6
Loose, mucous stool, or diarrhea [4, 10]: 0/6
Myosis [4, 10]: 0/6
Salivation [4, 10]: 0/6
cholinergic side effects, combination with donepezil ([4]; T‐495 0.3 mg/kg + donepezil 0.1 mg/kg): no cholinergic side effects were observed
Convulsion [4, 11]: 0/6
Fasciculation [4, 11]: 0/6
Lacrimation [4, 11]: 0/6
Loose, mucous stool, or diarrhea [4, 11]: 0/6
Myosis [4, 11]: 0/6
Salivation [4, 11]: 0/6
cholinergic side effects ([4]; doses up to 30 mg/kg p.o.): did not elicit any cholinergic side effects
